Source: PubChem BioAssay (NCI)
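1) Cells in 96-well plates. 2) Compound, 48 h, 5 concentrations. 3) Linear interpolation between surrounding doses. 4) Unreached endpoint = highest concentration. The concentration for full growth arrest is given as TGI.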

Key:
Assay in all cases: inhibition of tumour cell growth, NCI panel, 48 h
COLO 205 colon = system: COLO 205 colon
M19-MEL melanoma = system: M19-MEL melanoma
SNB-75 CNS = system: SNB-75 CNS
K-562 leukemia = system: K-562 leukemia
OVCAR-4 ovarian = system: OVCAR-4 ovarian
SR leukemia = system: SR leukemia
DLD-1 colon = system: DLD-1 colon
SNB-78 CNS = system: SNB-78 CNS
KM12 colon = system: KM12 colon
SK-MEL-28 melanoma = system: SK-MEL-28 melanoma
UACC-257 melanoma = system: UACC-257 melanoma
CAKI-1 renal = system: CAKI-1 renal
U251 CNS = system: U251 CNS
MOLT-4 leukemia = system: MOLT-4 leukemia
MALME-3M melanoma = system: MALME-3M melanoma
SN12C renal = system: SN12C renal
IGROV1 ovarian = system: IGROV1 ovarian
NCI-H460 lung = system: NCI-H460 lung
SK-MEL-5 melanoma = system: SK-MEL-5 melanoma
HCT-116 colon = system: HCT-116 colon
LXFL 529 NSCLC = system: LXFL 529 NSCLC
DMS 114 small cell lung = system: DMS 114 small cell lung
M14 melanoma = system: M14 melanoma
EKVX NSCLC = system: EKVX NSCLC
ACHN renal = system: ACHN renal
RXF-631 renal = system: RXF-631 renal
SK-MEL-2 melanoma = system: SK-MEL-2 melanoma
OVCAR-5 ovarian = system: OVCAR-5 ovarian
CCRF-CEM leukemia = system: CCRF-CEM leukemia
A549 NSCLC = system: A549 NSCLC
XF 498 CNS = system: XF 498 CNS
HT29 colon = system: HT29 colon
SNB-19 CNS = system: SNB-19 CNS
DMS 273 small cell lung = system: DMS 273 small cell lung
SF-539 CNS = system: SF-539 CNS
SW-620 colon = system: SW-620 colon
HL-60(TB) leukemia = system: HL-60(TB) leukemia
SF-268 CNS = system: SF-268 CNS
LOX IMVI melanoma = system: LOX IMVI melanoma
HCC-2998 colon = system: HCC-2998 colon
HOP-62 NSCLC = system: HOP-62 NSCLC
NCI-H23 lung = system: NCI-H23 lung
OVCAR-3 ovarian = system: OVCAR-3 ovarian
786-0 renal = system: 786-0 renal
HOP-92 NSCLC = system: HOP-92 NSCLC
SK-OV-3 ovarian = system: SK-OV-3 ovarian
RXF 393 renal = system: RXF 393 renal
A498 renal = system: A498 renal
RPMI-8226 leukemia = system: RPMI-8226 leukemia
OVCAR-8 ovarian = system: OVCAR-8 ovarian
UACC-62 melanoma = system: UACC-62 melanoma
UO-31 renal = system: UO-31 renal
TK-10 renal = system: TK-10 renal
HOP-18 NSCLC = system: HOP-18 NSCLC
NCI-H226 lung = system: NCI-H226 lung
SF-295 CNS = system: SF-295 CNS

Molecule CC1=C(/C=C/C(C)=C/C2CC(N(C)C)=CC(=O)O2)C(C)(C)CCC1 (stereo unspecified) has a TGI (COLO 205 colon) of 27.2 µM, a TGI (M19-MEL melanoma) of 29.3 µM and a TGI (SNB-75 CNS) of 32.4 µM. The TGI (K-562 leukemia) was 19.9 µM, the TGI (OVCAR-4 ovarian) was 31.7 µM and the TGI (SR leukemia) was 28.7 µM. The TGI (DLD-1 colon) was 32.8 µM, the TGI (SNB-78 CNS) was 41.9 µM and the TGI (KM12 colon) was 31.2 µM. For the same molecule, the TGI (SK-MEL-28 melanoma) was 30.9 µM, the TGI (UACC-257 melanoma) was 24.9 µM and the TGI (CAKI-1 renal) was 37.1 µM. For the same molecule, the TGI (U251 CNS) was 28.7 µM, the TGI (MOLT-4 leukemia) was 19.9 µM and the TGI (MALME-3M melanoma) was 28.6 µM. For the same molecule, the TGI (SN12C renal) was 29.2 µM, the TGI (IGROV1 ovarian) was 29 µM and the TGI (NCI-H460 lung) was 42.4 µM. For the same molecule, the TGI (SK-MEL-5 melanoma) was 19.6 µM, the TGI (HCT-116 colon) was 43 µM and the TGI (LXFL 529 NSCLC) was 24 µM. The TGI (DMS 114 small cell lung) was 23.8 µM, the TGI (M14 melanoma) was 28.3 µM and the TGI (EKVX NSCLC) was 27.9 µM. For the same molecule, the TGI (ACHN renal) was 24.8 µM, the TGI (RXF-631 renal) was 27.8 µM and the TGI (SK-MEL-2 melanoma) was 27.4 µM. It also gave a TGI (OVCAR-5 ovarian) of 24.1 µM, a TGI (CCRF-CEM leukemia) of 22.3 µM and a TGI (A549 NSCLC) of 22.3 µM. It also gave a TGI (XF 498 CNS) of 25.1 µM, a TGI (HT29 colon) of 27.9 µM and a TGI (SNB-19 CNS) of 28.6 µM. For the same molecule, the TGI (DMS 273 small cell lung) was 27.1 µM, the TGI (SF-539 CNS) was 30.2 µM and the TGI (SW-620 colon) was 31.1 µM. For the same molecule, the TGI (HL-60(TB) leukemia) was 16 µM, the TGI (SF-268 CNS) was 40.6 µM and the TGI (LOX IMVI melanoma) was 30.3 µM. The TGI (HCC-2998 colon) was 26.7 µM, the TGI (HOP-62 NSCLC) was 31 µM and the TGI (NCI-H23 lung) was 27.8 µM. It also gave a TGI (OVCAR-3 ovarian) of 23.7 µM, a TGI (786-0 renal) of 29.2 µM and a TGI (HOP-92 NSCLC) of 31.1 µM. For the same molecule, the TGI (SK-OV-3 ovarian) was 30.3 µM, the TGI (RXF 393 renal) was 31.1 µM and the TGI (A498 renal) was 29.2 µM. It also gave a TGI (RPMI-8226 leukemia) of 19.3 µM, a TGI (OVCAR-8 ovarian) of 32.3 µM and a TGI (UACC-62 melanoma) of 27 µM. It also gave a TGI (UO-31 renal) of 22.7 µM, a TGI (TK-10 renal) of 27.5 µM and a TGI (HOP-18 NSCLC) of 26.5 µM. For the same molecule, the TGI (NCI-H226 lung) was 25.8 µM and the TGI (SF-295 CNS) was 26.1 µM.
